Data set [1] in a line: Plasma protein binding by rapid equilibrium dialysis, mouse plasma. As to conditions: 37° C. The class given is in vitro ADME. The protocol: The extent to which (S)-1-((2-(trifluoromethyl)phenyl)sulfonyl)piperidine-3-carboxylic acid and (R)-1-((2-(trifluoromethyl)phenyl)sulfonyl)piperidine-3-carboxylic acid bound to plasma proteins such as albumin and alpha-1 acid glycoprotein within human or mouse blood was determined by rapid equilibrium dialysis. Compounds were incubated at 5 μM for 4 hours at 37° C. Plasma protein binding in mouse plasma was 78.1% and in human plasma was 91.5% for (S)-1-((2-(trifluoromethyl)phenyl)sulfonyl)piperidine-3-carboxylic acid. Plasma protein binding in mouse plasma was 83.8% and in human plasma was 90.5% for (R)-1-((2-(trifluoromethyl)phenyl)sulfonyl)piperidine-3-carboxylic acid.
(In equilibrium dialysis only unbound substance equilibrates across the membrane.)

Data set [2] can be described thus: Mouse hepatocyte stability. The class given is in vitro ADME. As to conditions: male, C57BL6, cryopreserved hepatocytes in suspension, 37° C.; for hepatocyte CLint: read-out: intrinsic clearance (CLint) in mouse hepatocytes. The method, then: (§1) The intrinsic clearance (CLint) and half-life of (S)-1-((2-(trifluoromethyl)phenyl)sulfonyl)piperidine-3-carboxylic acid and (R)-1-((2-(trifluoromethyl)phenyl)sulfonyl)piperidine-3-carboxylic acid were measured in a hepatocyte suspension of cryopreserved male C57BL6 mouse hepatocytes or a mixed hepatocyte suspension of cryopreserved human hepatocytes. Briefly, the compounds were incubated with hepatocyte suspensions at 37° C. over a time course and the remaining compound at each time point was assessed by mass spectrometry (UPLC-MS/MS). CLint in mouse hepatocytes was <3 μl/min/10^6 cells and in human hepatocytes was <3 μl/min/10^6 cells for both compounds.

Data set [3] can be described thus: Human hepatocyte stability. The note with it: cryopreserved hepatocytes, mixed human hepatocyte suspension, 37° C.; for hepatocyte CLint: read-out: intrinsic clearance (CLint) in human hepatocytes. The class given is in vitro ADME. The method, then: as §1
The target in data set [4] is T1, CYP 2D6 (Homo sapiens, UniProt P10635).
T1 construct: purchased CYPEX; host or cells: E. coli
The experiment in a line: CYP inhibition, E. coli CYPEX membranes with probe substrates. The class given is in vitro ADME. The method, then:
(§2) Using E. coli CYPEX membranes in combination with specific probe substrates, the inhibition of individual CYPs by (S)-1-((2-(trifluoromethyl)phenyl)sulfonyl)piperidine-3-carboxylic acid and (R)-1-((2-(trifluoromethyl)phenyl)sulfonyl)piperidine-3-carboxylic acid was assessed (see Weaver et al., 2003, Drug Metab Dispos 31:7, 955-966).

For data set [5], the target named is T2, CYP 2C9 (Homo sapiens, UniProt P11712).
T2 construct: purchased CYPEX; host or cells: E. coli
The data set is described as above. The class given is in vitro ADME. The protocol:
as §2

The target of data set [6] is T3, CYP 2C19 (Homo sapiens, UniProt P33261).
T3 construct: purchased CYPEX; host or cells: E. coli
The description is as above. The class given is in vitro ADME. The method, then:
as §2

The target in data set [7] is T4, CYP 1A2 (Homo sapiens, UniProt P05177).
T4 construct: purchased CYPEX; host or cells: E. coli
T4 sequence (P05177 1-516): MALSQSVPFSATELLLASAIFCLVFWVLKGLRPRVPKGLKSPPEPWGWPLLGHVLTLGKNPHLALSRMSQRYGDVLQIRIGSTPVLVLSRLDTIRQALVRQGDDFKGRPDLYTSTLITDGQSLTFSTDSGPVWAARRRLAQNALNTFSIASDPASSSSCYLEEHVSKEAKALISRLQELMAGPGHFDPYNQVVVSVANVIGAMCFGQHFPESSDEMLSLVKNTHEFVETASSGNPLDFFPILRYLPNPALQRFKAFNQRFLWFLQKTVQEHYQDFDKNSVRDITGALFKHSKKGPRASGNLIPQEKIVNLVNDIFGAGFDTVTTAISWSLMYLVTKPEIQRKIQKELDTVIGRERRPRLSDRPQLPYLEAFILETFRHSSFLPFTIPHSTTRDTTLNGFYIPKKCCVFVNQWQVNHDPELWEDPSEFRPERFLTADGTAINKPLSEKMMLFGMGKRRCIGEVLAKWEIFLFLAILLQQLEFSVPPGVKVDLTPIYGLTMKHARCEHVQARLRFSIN
The description is as above. The class given is in vitro ADME. The method, then:
as §2

Data set [8] deals with T5, CYP 3A4 (Homo sapiens, UniProt P08684).
T5 construct: purchased CYPEX; host or cells: E. coli
The data set is described as above. The class given is in vitro ADME. The protocol: as §2

The target of data set [9] is T6, human M A1AT (Homo sapiens, UniProt P01009).
T6 construct: expressed in transfected cells; host or cells: HEK-M cells (HEK-EBNA with M A1AT plasmid)
The experiment in a line: A1AT cell secretion assay using HEK-M cells (ELISA). The note with it: 10 μM, 48 h. The class given is cell-based. The method, then:
HEK-M cells, a human embryonic kidney cell line stably transfected with M A1AT, were plated into 96 well plates (3.0×10^5 cells/ml with 200 μl of media/well) overnight at 37° C. in a humidified atmosphere containing 5% CO2. Following incubation cells were washed with 200 μl serum-free media three times and media was replaced with serum-free media containing either vehicle, 10 μM suberanilohydroxamic acid (SAHA), (S)-1-((2-(trifluoromethyl)phenyl)sulfonyl)piperidine-3-carboxylic acid (at 10 μM) or (R)-1-((2-(trifluoromethyl)phenyl)sulfonyl)piperidine-3-carboxylic acid (at 10 μM) in replicates of six for 48 h in a 37° C. incubator in a final volume of 200 μl. At the end of the incubation step the supernatants were removed from the wells, centrifuged at 1000×g at 4° C. for 10 min and were assayed for human A1AT levels by ELISA (Human Serpin A1/α1 antitrypsin duo set ELISA, R& D Systems, DY1268) per manufacturer's instructions.
Briefly, a 96 well plate was coated with human A1AT capture antibody overnight at room temperature (1:180 dilution from stock, 100 μl final volume/well). The capture antibody was then removed and wells washed three times with 300 μl wash buffer (0.05% Tween in PBS) and then 200 μl reagent diluent (25% Tween 20 in PBS) was incubated in each well for 1 h at room temperature. Diluted samples, standards (125, 250, 500, 1000, 2000, 4000 and 8000 pg/ml A1AT) or blanks were then added to each well in duplicate and the plates were covered with a plate sealer and left at room temperature for 2 h. […] After which, 50 μl stop solution (2M H2SO4) was added and optical density (OD) of each well was read at 450 nm with 570 nm blank subtracted from each well using a microplate reader. A 4 parameter logistic curve was constructed using GraphPad Prism 7 and A1AT concentrations were determined in each sample by interpolation from a standard curve and multiplying by the appropriate dilution factor.
The amount of human A1AT secreted from transfected HEK-EBNA cells into the media was measured by ELISA. […]

The results in this text go back to patent US12673050B2, “Compositions and their use for the treatment of A1-antitrypsin deficiency” (Centessa Pharmaceuticals (UK) Limited, priority 2021, dated 2026).

Bounds are passed on as bounds.

As usually defined, the fraction unbound is free concentration divided by total concentration. As usually defined, the half-life is the time needed for the level to fall by half in the phase considered. The low end stands for fast loss, the high end for slow loss. Broadly, the IC50 is the concentration that inhibits the measured activity by half.

T5 sequence (P08684 whole entry): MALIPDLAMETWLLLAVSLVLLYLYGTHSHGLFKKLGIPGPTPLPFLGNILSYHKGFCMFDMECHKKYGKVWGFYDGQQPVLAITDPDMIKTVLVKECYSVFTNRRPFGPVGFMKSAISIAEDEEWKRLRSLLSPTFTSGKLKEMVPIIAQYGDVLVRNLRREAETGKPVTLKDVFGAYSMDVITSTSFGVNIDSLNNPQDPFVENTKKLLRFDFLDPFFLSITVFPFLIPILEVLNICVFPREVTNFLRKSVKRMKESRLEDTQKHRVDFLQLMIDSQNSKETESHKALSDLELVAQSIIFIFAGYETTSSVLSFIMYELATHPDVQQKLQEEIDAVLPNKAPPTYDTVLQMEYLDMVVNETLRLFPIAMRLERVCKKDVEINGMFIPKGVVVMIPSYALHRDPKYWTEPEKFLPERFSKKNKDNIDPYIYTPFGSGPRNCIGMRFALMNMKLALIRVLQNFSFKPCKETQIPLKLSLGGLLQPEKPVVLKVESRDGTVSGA
T6 sequence (P01009 25-418): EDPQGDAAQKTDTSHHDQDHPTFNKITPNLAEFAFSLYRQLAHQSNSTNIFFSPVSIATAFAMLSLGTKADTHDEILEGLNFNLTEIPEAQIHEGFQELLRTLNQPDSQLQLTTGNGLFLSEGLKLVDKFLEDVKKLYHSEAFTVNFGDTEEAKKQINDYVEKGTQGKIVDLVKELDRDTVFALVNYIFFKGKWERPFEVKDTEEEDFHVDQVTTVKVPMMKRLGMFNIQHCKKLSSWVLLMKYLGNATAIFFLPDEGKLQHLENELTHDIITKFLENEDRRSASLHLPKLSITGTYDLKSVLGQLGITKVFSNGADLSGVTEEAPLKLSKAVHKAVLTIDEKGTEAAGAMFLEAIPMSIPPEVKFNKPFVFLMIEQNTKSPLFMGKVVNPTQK
T3 sequence (P33261 whole entry): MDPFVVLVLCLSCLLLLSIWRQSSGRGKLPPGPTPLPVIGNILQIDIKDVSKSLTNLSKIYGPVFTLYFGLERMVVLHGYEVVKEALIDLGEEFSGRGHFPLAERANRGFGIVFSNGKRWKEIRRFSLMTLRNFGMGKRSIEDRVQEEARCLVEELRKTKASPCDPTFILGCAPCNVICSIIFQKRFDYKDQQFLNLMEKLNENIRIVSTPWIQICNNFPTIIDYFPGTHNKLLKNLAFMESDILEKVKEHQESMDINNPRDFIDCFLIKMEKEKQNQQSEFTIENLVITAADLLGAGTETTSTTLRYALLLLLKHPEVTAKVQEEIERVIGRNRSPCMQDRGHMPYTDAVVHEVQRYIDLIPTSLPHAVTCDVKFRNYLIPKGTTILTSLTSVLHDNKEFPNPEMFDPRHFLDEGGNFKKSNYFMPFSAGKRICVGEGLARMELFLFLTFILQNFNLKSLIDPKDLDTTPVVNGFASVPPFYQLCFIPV
T2 sequence (P11712 whole entry): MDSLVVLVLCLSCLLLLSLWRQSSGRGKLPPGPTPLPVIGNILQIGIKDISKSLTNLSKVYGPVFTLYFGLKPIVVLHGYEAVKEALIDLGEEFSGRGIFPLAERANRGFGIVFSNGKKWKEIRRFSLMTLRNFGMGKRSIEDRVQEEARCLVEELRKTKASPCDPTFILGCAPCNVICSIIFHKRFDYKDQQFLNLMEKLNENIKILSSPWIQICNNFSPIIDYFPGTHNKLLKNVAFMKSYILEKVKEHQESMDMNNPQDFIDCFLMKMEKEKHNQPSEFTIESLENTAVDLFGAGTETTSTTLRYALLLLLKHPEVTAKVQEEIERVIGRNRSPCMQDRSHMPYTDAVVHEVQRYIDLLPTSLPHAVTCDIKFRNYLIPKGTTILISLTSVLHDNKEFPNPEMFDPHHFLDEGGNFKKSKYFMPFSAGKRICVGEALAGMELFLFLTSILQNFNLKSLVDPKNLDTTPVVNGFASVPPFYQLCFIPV
T1 sequence (P10635 whole entry): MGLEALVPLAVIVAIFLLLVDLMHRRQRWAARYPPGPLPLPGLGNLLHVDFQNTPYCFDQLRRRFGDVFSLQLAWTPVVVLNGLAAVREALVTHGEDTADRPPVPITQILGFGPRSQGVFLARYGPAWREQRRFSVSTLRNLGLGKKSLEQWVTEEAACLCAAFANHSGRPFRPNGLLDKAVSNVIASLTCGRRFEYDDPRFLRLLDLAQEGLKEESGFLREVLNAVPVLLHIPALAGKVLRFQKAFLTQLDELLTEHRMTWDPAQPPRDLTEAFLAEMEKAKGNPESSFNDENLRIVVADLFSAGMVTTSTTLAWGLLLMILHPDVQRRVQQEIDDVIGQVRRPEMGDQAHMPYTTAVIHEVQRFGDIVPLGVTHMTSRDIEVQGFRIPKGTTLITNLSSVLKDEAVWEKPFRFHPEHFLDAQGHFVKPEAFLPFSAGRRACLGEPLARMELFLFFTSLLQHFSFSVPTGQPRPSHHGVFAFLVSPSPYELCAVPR

In turn, `O=C(O)[C@@H]1CCCN(S(=O)(=O)c2ccccc2C(F)(F)F)C1` [(R)-1-((2-(Trifluoromethyl)phenyl)sulfonyl)piperidine-3-carboxylic acid] had a fraction unbound at 4 h, 5 μM in data set [1] of 0.162. Also, the half-life in data set [2] and in data set [3] was above 7.67 h throughout. Also, the hepatocyte CLint in data set [2] and in data set [3] was below 3 µL/min/1e6 cells in each case. The IC50 in [4], in data set [5], in data set [6], in [7] and in data set [8] was above 50 µM throughout. Further, in data set [9], the “secretion of human M A1AT into cell supernatant” value is recorded as “does not stimulate secretion of human M A1AT”.

As for `O=C(O)[C@H]1CCCN(S(=O)(=O)c2ccccc2C(F)(F)F)C1` [(S)-1-((2-(Trifluoromethyl)phenyl)sulfonyl)piperidine-3-carboxylic acid], the fraction unbound at 4 h, 5 μM in data set [1] was 0.219. The half-life in [2] and in [3] was above 7.67 h each time. Moreover, the hepatocyte CLint in data set [2] and in data set [3] was below 3 µL/min/1e6 cells in each case. Also, the IC50 in [4], in [5], in data set [6], in [7] and in data set [8] was above 50 µM each time. For the same molecule, in [9], the “secretion of human M A1AT into cell supernatant” value is reported as “does not stimulate secretion of human M A1AT”.
